23 compounds from patent US7601746B2 (Shionogi & Co., Ltd., priority 2003, dated 2009) can be followed below.

pEC50: −log10 of the molar value.

For the first experiment, the target named is T1, human TPO receptor (hTPOR) (Homo sapiens, UniProt P40238).
T1 construct: expressed in transfected cells; host or cells: BaF-B03 (murine IL-3 dependent cell line)
T1 sequence (P40238 26-635): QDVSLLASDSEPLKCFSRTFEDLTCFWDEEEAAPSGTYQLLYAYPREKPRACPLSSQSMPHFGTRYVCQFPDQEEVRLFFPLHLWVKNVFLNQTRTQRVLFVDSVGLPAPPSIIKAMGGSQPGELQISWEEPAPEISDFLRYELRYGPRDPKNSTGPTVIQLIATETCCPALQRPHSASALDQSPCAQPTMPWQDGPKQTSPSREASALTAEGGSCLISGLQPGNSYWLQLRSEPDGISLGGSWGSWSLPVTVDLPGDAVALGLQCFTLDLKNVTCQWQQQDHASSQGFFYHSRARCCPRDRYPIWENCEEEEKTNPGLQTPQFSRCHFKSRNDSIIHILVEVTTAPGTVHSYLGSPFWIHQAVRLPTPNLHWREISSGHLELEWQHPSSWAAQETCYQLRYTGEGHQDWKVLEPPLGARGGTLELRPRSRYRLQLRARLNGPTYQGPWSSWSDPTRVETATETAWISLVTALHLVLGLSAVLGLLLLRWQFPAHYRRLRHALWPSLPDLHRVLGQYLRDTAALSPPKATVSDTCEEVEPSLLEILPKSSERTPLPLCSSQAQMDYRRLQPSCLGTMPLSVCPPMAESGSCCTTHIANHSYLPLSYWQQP
In words: Thrombopoietic activity: proliferation of TPO dependent BaF/hTPOR cells (WST-1, absorbance at 450 nm). It is filed as cell-based. The conditions noted are these: 20 h + 4 h WST-1, ED50 = half concentration of the concentration showing the maximum thrombopoietic activity, Table 1. The source says:
The TPO dependent BaF/hTPOR cell line which was established by introducing human TPO receptor (hTPOR) into BaF-B03 cells according to Collins et al (J. Cell. Physiol., 137:293-298 (1988)) was used to test the thrombopoietic activity of the present compound. The DNA sequences and encoded peptide sequences for human hTPOR have been described by Vigon et al (Proc. Natl. Acad. Sci. USA, 89:5640-5644 (1992)). TPO dose not have any ability to support proliferation of interlukin-3 dependent parental cell line BaF-B03. BAF/hTPOR cells were maintained in RPMI medium and WEHI-3B conditioned medium as a source of murine interleukin-3 (IL-3). These cells were washed and resuspended in RPMI medium without a source of murine IL-3 and seeded into each well of 96-well microtiter plates at a density of 5×10^4 cells per well in the absence or presence of various concentration of hTPO or the present compound. After incubation at 37° C. for 20 hours in the 5% CO2 incubator, 10% WST-1 reagent (Takara Biomedicals, Japan) was added to each wells and the cells were further incubated for 4 hours. The absorbance at 450 nm was measured. Tables 1 and 2 exemplify the ED50 for tested compounds of the present invention, wherein the ED50 is the half concentration of the concentration showing the maximum thrombopoietic activity.
What is called pEC50 is −log10 of the EC50, conventionally taken in molar units. In the case of `COC(c1cccc(-c2csc(NC(=O)c3cc(F)c(C=C(C)C(=O)O)c(F)c3)n2)c1F)C(C)(C)C` (centres unmarked) [Compound B13, 3-(2,6-difluoro-4-{4-[2-fluoro-3-(1-methyloxy-2,2-dimethylpropyl)phenyl]thiazol-2-ylcarbamoyl}phenyl)-2-methylacrylic acid], the pEC50 is 9.00.
`COC(CCC(C)C)c1cccc(-c2csc(NC(=O)c3cc(F)c(C=C(C)C(=O)O)c(F)c3)n2)c1F` (centres unmarked) [Compound B11, 3-(2,6-difluoro-4-{4-[2-fluoro-3-(1-methyloxy-4-methylpentyl)phenyl]thiazol-2-ylcarbamoyl}phenyl)-2-methylacrylic acid]: the pEC50 was 9.09.
Take “3-{2,6-difluoro-4,5-dihydro-4-[6-(3-ethyloxypropyl)naphtho[1,2-d]thiazol-2-ylcabamoyl]phenyl}-2-methylacrylic acid [Compound A8]”: the pEC50 was 8.54.
As for `CCCCOC(CCC)c1cccc(-c2csc(NC(=O)c3cc(Cl)c(C=C(C)C(=O)O)c(Cl)c3)n2)c1F` (centres unmarked) [Compound B79, 3-(4-{4-[3-(1-n-butyloxybutyl)-2-fluorophenyl]thiazol-2-ylcarbamoyl}-2,6-dichlorophenyl)-2-methylacrylic acid], the pEC50 is 9.11.
Same read-out and setting: then `CCCCCCCC(OC)c1cccc(-c2csc(NC(=O)c3cc(Cl)c(C=C(C)C(=O)O)c(Cl)c3)n2)c1F` (centres unmarked) [Compound B69, 3-(2,6-dichloro-4-{4-[2-fluoro-3-(1-methyloxyoctyl)phenyl]thiazol-2-ylcarbamoyl}phenyl)-2-methylacrylic acid], with 9.11.
Still for that read-out and setting: then `COc1c(CCCOCC2CC2)cccc1-c1csc(NC(=O)c2cc(Cl)c(/C=C(\C)C(=O)O)c(Cl)c2)n1` [Compound B1945, (E)-3-(2,6-dichloro-4-{4-[3-(3-cyclopropylmethyloxypropyl)-2-methyloxyphenyl]thiazol-2-ylcarbamoyl}phenyl)-2-methylacrylic acid], with 7.72; and `CCOCCCCOC(CC)c1cccc(-c2csc(NC(=O)c3cc(F)c(C=C(C)C(=O)O)c(F)c3)n2)c1F` (centres unmarked) [Compound B22, 3-[2,6-difluoro-4-(4-{3-[1-(4-ethyloxybutyloxy)propyl]-2-fluorophenyl}thiazol-2-ylcarbamoyl)phenyl]-2-methylacrylic acid], with 8.94; and `CCCCOC(C)c1cccc(-c2csc(NC(=O)c3cc(F)c(C=C(C)C(=O)O)c(F)c3)n2)c1F` (centres unmarked) [Compound B50, 3-(4-{4-[3-(1-n-butyloxyethyl)-2-fluorophenyl]thiazol-2-ylcarbamoyl}-2,6-difluorophenyl)-2-methylacrylic acid], with 9.10.
Still for that read-out and setting: then `CCC(CC)COCc1cccc(-c2csc(NC(=O)c3cc(F)c(/C=C(\C)C(=O)O)c(F)c3)n2)c1OC` [Compound B2023, (E)-3-(4-{4-[3-(2-ethylbutyloxymethyl)-2-methyloxyphenyl]thiazol-2-ylcarbamoyl}-2,6-difluorophenyl)-2-methyl acrylic acid], with 8.19; and `CCCOC(CCC)c1cccc(-c2csc(NC(=O)c3cc(Cl)c(C=C(C)C(=O)O)c(Cl)c3)n2)c1F` (centres unmarked) [Compound B78, 3-(2,6-dichloro-4-{4-[2-fluoro-3-(1-n-propyloxybutyl)phenyl]thiazol-2-ylcarbamoyl}phenyl)-2-methylacrylic acid], with 9.01; and `CCCCOCCCc1cccc2c1CCc1sc(NC(=O)c3cc(Cl)c(C=C(C)C(=O)O)c(Cl)c3)nc1-2` [Compound A11, 3-{4-[6-(3-n-butyloxypropyl)-4,5-dihydronaphtho[1,2-d]thiazol-2-ylcabamoyl]-2,6-dichlorophenyl}-2-methylacrylic acid], with 9.06.
With `CCCCOCCCc1cccc(-c2csc(NC(=O)c3cc(F)c(C=C(C)C(=O)O)c(F)c3)n2)c1F` [Compound B49, 3-(4-{4-[3-(3-n-butyloxypropyl)-2-fluorophenyl]thiazol-2-ylcarbamoyl}-2,6-difluorophenyl)-2-methylacrylic acid], the pEC50 was 8.89.
On to `CCCCCCCCCC(OC)c1cccc(-c2csc(NC(=O)c3cc(F)c(/C=C(\C)C(=O)O)c(F)c3)n2)c1OC` (centres unmarked) [Compound B354, (E)-3-(2,6-difluoro-4-{4-[2-methyloxy-3-(1-methyloxydecyl)phenyl]thiazol-2-ylcarbamoyl}phenyl)-2-methylacrylic acid], for which the pEC50 was 8.49.
The same measure, in the same setting: then `COc1c(CCOCCC(C)C)cccc1-c1csc(NC(=O)c2cc(Cl)c(/C=C(\C)C(=O)O)c(Cl)c2)n1` [Compound B1955], with 7.93; and `CCCCCC(OC)c1cccc(-c2csc(NC(=O)c3cc(F)c(C=C(C)C(=O)O)c(F)c3)n2)c1F` (centres unmarked) [Compound B1, 3-(2,6-difluoro-4-{4-[2-fluoro-3-(1-methyloxyhexyl)phenyl]thiazol-2-ylcarbamoyl}phenyl)-2-methylacrylic acid], with 8.66.
Still for that read-out and setting: then `CCCCCOC(CC)c1cccc(-c2csc(NC(=O)c3cc(Cl)c(C=C(C)C(=O)O)c(Cl)c3)n2)c1F` (centres unmarked) [Compound B67, 3-[2,6-dichloro-4-(4-{3-[1-n-pentyloxypropyl]-2-fluorophenyl}thiazol-2-ylcarbamoyl)phenyl]-2-methylacrylic acid], with 9.32.
The same measure, in the same setting: the value for `CCCc1cccc2c1OCc1sc(NC(=O)c3cc(F)c(/C=C(\C)C(=O)O)c(F)c3)nc1-2` [Compound A1308, (E)-3-[2,6-difluoro-4-(6-propyl-4H-chromeno[4,3-d]thiazol-2-ylcabamoyl)phenyl]-2-methylacrylic acid] was 7.89; that for `COc1c(CCCOCCC(C)C)cccc1-c1csc(NC(=O)c2cc(F)c(/C=C(\C)C(=O)O)c(F)c2)n1` [Compound B1851, (E)-3-[2,6-difluoro-4-(4-{2-methyloxy-3-[3-(3-methylbutyloxy)propyl]phenyl}thiazol-2-ylcarbamoyl)phenyl]-2-methylacrylic acid] was 7.77.

The same experiment, now with this note: 20 h + 4 h WST-1, ED50 = half concentration of the concentration showing the maximum thrombopoietic activity, Table 2.
For the compound `CCCCCOCc1cccc(-c2csc(NC(=O)c3cc(Cl)c(/C=C(\C)C(=O)O)c(Cl)c3)n2)c1OC` [Compound B1886], the pEC50 is 7.66.
Still for that read-out and setting: then `CO/C(=C\c1c(F)cc(C(=O)Nc2nc(-c3cccc(CCCOCC(C)(C)C)c3F)c(OC)s2)cc1F)C(=O)O` [Compound B1904, (Z)-3-[4-(4-{3-[3-(2,2-dimethylpropyloxy)propyl]-2-fluorophenyl}-5-methyloxythiazol-2-ylcarbamoyl)-2,6-difluorophenyl]-2-methyloxyacrylic acid], with 7.61; and `COc1c(CCCOCC2CCC2)cccc1-c1csc(NC(=O)c2cc(F)c(/C=C(\C)C(=O)O)c(F)c2)n1` [Compound B1854, (E)-3-(4-{4-[3-(3-cyclobutylmethyloxypropyl)-2-methyloxyphenyl]thiazol-2-ylcarbamoyl}-2,6-difluorophenyl)-2-methylacrylic acid], with 7.61; and `CCCOCCCc1cccc(-c2nc(NC(=O)c3cc(Cl)c(/C=C(\C)C(=O)O)c(Cl)c3)sc2OC)c1` [Compound B1863, (E)-3-(2,6-dichloro-4-{5-methyloxy-4-[3-(3-propyloxypropyl)phenyl]thiazol-2-ylcarbamoyl}phenyl)-2-methylacrylic acid], with 7.64.
For the compound `CCC(CC)COCCCc1cccc(-c2csc(NC(=O)c3cc(Cl)c(/C=C(\C)C(=O)O)c(Cl)c3)n2)c1OC` [Compound B1849, (E)-3-[2,6-dicholoro-4-(4-{3-[3-(2-ethylbutyloxy)propyl]-2-methyloxyphenyl}thiazol-2-ylcarbamoyl)phenyl]-2-methylacrylic acid], the negative logarithm of the EC50 (pEC50) is 7.65.
